Source: patent publication US20260262643A1, “HERBICIDAL BENZOXAZINES” (FMC CORPORATION, priority 2022, published 2026)

What was measured:
ryegrass, Italian [1] = test: Test C preemergence; assay type: in vivo, Lolium multiflorum; settings: for Ryegrass, Italian plant response rating: preemergence, 0 to 100 scale (0 no effect, 100 complete control)
Summary of the method: (§1)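 Test material, in non-phytotoxic solvent with surfactant, was sprayed on the soil directly after seeding (preemergence) or on young plants of 2–10 cm with one to two leaves (postemergence). Greenhouse, 10 days; 0–100 visual control scale.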

rice = test: Test D flooded paddy test; assay type: in vivo, Oryza sativa; settings: 250 g ai/ha, applied to paddy water, visual rating after 13 to 14 days, scale 0 to 100 (0 no effect, 100 complete control)
Summary of the method: (§2)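 Visual ratings from 0, meaning no effect, to 100, meaning complete control, were assigned against untreated controls 13 to 14 days after compounds were added to the floodwater of pots kept 3 cm deep, with plants at the 2-leaf stage.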

barnyardgrass [2] = test: Test D flooded paddy test; assay type: in vivo, Echinochloa crus-galli; settings: 250 g ai/ha, applied to paddy water, visual rating after 13 to 14 days, scale 0 to 100 (0 no effect, 100 complete control)
Summary of the method: as §2

galium = test: Test C postemergence; assay type: in vivo, Galium aparine; settings: 10 days
Summary of the method: as §1

sedge, umbrella = test: Test D flooded paddy test; assay type: in vivo, Cyperus difformis; settings: 250 g ai/ha, applied to paddy water, visual rating after 13 to 14 days, scale 0 to 100 (0 no effect, 100 complete control)
Summary of the method: as §2

wheat [3] = test: Test C preemergence; assay type: in vivo, Triticum aestivum; settings: for Wheat plant response rating: preemergence, 0 to 100 scale (0 no effect, 100 complete control)
Summary of the method: as §1

green foxtail [4] = test: Test C postemergence; assay type: in vivo, Setaria viridis; settings: 10 days
Summary of the method: as §1

oat, wild [5] = test: Test C postemergence; assay type: in vivo, Avena fatua; settings: 10 days
Summary of the method: as §1

blackgrass [6] = test: Test C preemergence; assay type: in vivo, Alopecurus myosuroides; settings: for Blackgrass plant response rating: preemergence; for Plant response rating, Blackgrass: Preemergence
Summary of the method: as §1

ducksalad = test: Test D flooded paddy test; assay type: in vivo, Heteranthera limosa; settings: 250 g ai/ha, applied to paddy water, visual rating after 13 to 14 days, scale 0 to 100 (0 no effect, 100 complete control)
Summary of the method: as §2

ragweed [7] = test: Test C preemergence; assay type: in vivo, Ambrosia artemisiifolia; settings: for Ragweed plant response rating: preemergence, 0 to 100 scale (0 no effect, 100 complete control)
Summary of the method: as §1

ryegrass, Italian [8] = test: Test C postemergence; assay type: in vivo, Lolium multiflorum; settings: 10 days
Summary of the method: as §1

barnyardgrass [9] = test: Test C postemergence; assay type: in vivo, Echinochloa crusgalli; settings: 10 days
Summary of the method: as §1

kochia [10] = test: Test C postemergence; assay type: in vivo, Bassia scoparia; settings: 10 days
Summary of the method: as §1

green foxtail [11] = test: Test C preemergence; assay type: in vivo, Setaria viridis; settings: for Foxtail, Green plant response rating: preemergence, 0 to 100 scale (0 no effect, 100 complete control)
Summary of the method: as §1

pigweed, palmer [12] = test: Test C preemergence; assay type: in vivo, Amaranthus palmeri; settings: for Pigweed, Palmer plant response rating: preemergence, 0 to 100 scale (0 no effect, 100 complete control)
Summary of the method: as §1

barnyardgrass [13] = test: Test C preemergence; assay type: in vivo, Echinochloa crusgalli; settings: for Barnyardgrass plant response rating: preemergence; for Plant response rating, Barnyardgrass: Preemergence
Summary of the method: as §1

ragweed [14] = test: Test C postemergence; assay type: in vivo, Ambrosia artemisiifolia; settings: 10 days
Summary of the method: as §1

corn [15] = test: Test C postemergence; assay type: in vivo, Zea mays; settings: 10 days
Summary of the method: as §1

kochia [16] = test: Test C preemergence; assay type: in vivo, Bassia scoparia; settings: for Kochia plant response rating: preemergence, 0 to 100 scale (0 no effect, 100 complete control)
Summary of the method: as §1

soybean [17] = test: Test C preemergence; assay type: in vivo, Glycine max; settings: for Soybean plant response rating: preemergence, 0 to 100 scale (0 no effect, 100 complete control)
Summary of the method: as §1

blackgrass [18] = test: Test C postemergence; assay type: in vivo, Alopecurus myosuroides; settings: 10 days
Summary of the method: as §1

oat, wild [19] = test: Test C preemergence; assay type: in vivo, Avena fatua; settings: for Oat, Wild plant response rating: preemergence, 0 to 100 scale (0 no effect, 100 complete control)
Summary of the method: as §1

pigweed, palmer [20] = test: Test C postemergence; assay type: in vivo, Amaranthus palmeri; settings: 10 days
Summary of the method: as §1

soybean [21] = test: Test C postemergence; assay type: in vivo, Glycine max; settings: 10 days
Summary of the method: as §1

corn [22] = test: Test C preemergence; assay type: in vivo, Zea mays; settings: for Corn plant response rating: preemergence, 0 to 100 scale (0 no effect, 100 complete control)
Summary of the method: as §1

wheat [23] = test: Test C postemergence; assay type: in vivo, Triticum aestivum; settings: 10 days
Summary of the method: as §1

horseweed = test: Test C postemergence; assay type: in vivo, Erigeron canadensis; settings: 10 days
Summary of the method: as §1

[24] = Preemergence, 125 g ai/ha, 0 to 100 scale, 0 no effect, 100 complete control
[25] = 500 g ai/ha, postemergence, 0 to 100 scale (0 no effect, 100 complete control)
[26] = Postemergence, 125 g ai/ha, 0 to 100 scale (0 no effect, 100 complete control)
[27] = 500 g ai/ha, 0 to 100 scale (0 no effect, 100 complete control)
[28] = 125 g ai/ha, 0 to 100 scale, 0 no effect, 100 complete control
[29] = 125 g ai/ha, postemergence, 0 to 100 scale, 0 no effect, 100 complete control
[30] = Postemergence, 500 g ai/ha, visual 0 to 100 scale (0 no effect, 100 complete control)
[31] = 500 g ai/ha, visual rating after 10 days, 0 to 100 scale (0 no effect, 100 complete control)
[32] = Test C, 125 g ai/ha, 0 to 100 scale (0 no effect, 100 complete control)

CC(C)c1ncn(-c2ccc([S+](C)[O-])c(C(=O)N3C[C@H](C)Oc4c(Cl)cccc43)c2)n1 (stereo partly shown) [Compound 394] was tested, and the “Ryegrass, Italian plant response rating” value (ryegrass, Italian [1]; 500 g ai/ha) was 90, the “Plant response rating, Ryegrass, Italian” value (ryegrass, Italian [1]; [24]) was 60 and the “Plant response rating, Rice (Flood)” value (rice) was 0. The “Plant response rating, Barnyardgrass (Flood)” value (barnyardgrass [2]) was 15, the “Plant response rating, Galium” value (galium; [25]) was 100 and the “Plant response rating, Galium” value (galium; [26]) was 100. For the same molecule, the “Plant response rating, Sedge, Umbrella (Flood)” value (sedge, umbrella) was 0, the “Wheat plant response rating” value (wheat [3]; 500 g ai/ha) was 80 and the “Plant response rating, Wheat” value (wheat [3]; [24]) was 20. The “Plant response rating, Foxtail, Green” value (green foxtail [4]; [25]) was 90, the “Plant response rating, Foxtail, Green” value (green foxtail [4]; [26]) was 30 and the “Plant response rating, Oat, Wild” value (oat, wild [5]; [25]) was 70. For the same molecule, the “Plant response rating, Oat, Wild” value (oat, wild [5]; [26]) was 50, the “Blackgrass plant response rating” value (blackgrass [6]; [27]) was 90 and the “Plant response rating, Blackgrass” value (blackgrass [6]; [28]) was 30. The “Plant response rating, Ducksalad (Flood)” value (ducksalad) was 10, the “Ragweed plant response rating” value (ragweed [7]; 500 g ai/ha) was 50 and the “Plant response rating, Ragweed” value (ragweed [7]; [24]) was 0. The “Plant response rating, Ryegrass, Italian” value (ryegrass, Italian [8]; [25]) was 90, the “Plant response rating, Ryegrass, Italian” value (ryegrass, Italian [8]; [26]) was 50 and the “Plant response rating, Barnyardgrass” value (barnyardgrass [9]; [25]) was 70. For the same molecule, the “Plant response rating, Barnyardgrass” value (barnyardgrass [9]; [26]) was 50, the “Plant response rating, Kochia” value (kochia [10]; [25]) was 90 and the “Plant response rating, Kochia” value (kochia [10]; [26]) was 90. For the same molecule, the “Foxtail, Green plant response rating” value (green foxtail [11]; 500 g ai/ha) was 100, the “Plant response rating, Foxtail, Green” value (green foxtail [11]; [24]) was 100 and the “Pigweed, Palmer plant response rating” value (pigweed, palmer [12]; 500 g ai/ha) was 100. The “Plant response rating, Pigweed, Palmer” value (pigweed, palmer [12]; [24]) was 100, the “Barnyardgrass plant response rating” value (barnyardgrass [13]; [27]) was 100 and the “Plant response rating, Barnyardgrass” value (barnyardgrass [13]; [28]) was 70. For the same molecule, the “Plant response rating, Ragweed” value (ragweed [14]; [25]) was 70, the “Plant response rating, Ragweed” value (ragweed [14]; [26]) was 70 and the “Plant response rating, Corn” value (corn [15]; [25]) was 50. The “Plant response rating, Corn” value (corn [15]; [26]) was 20, the “Kochia plant response rating” value (kochia [16]; 500 g ai/ha) was 100 and the “Plant response rating, Kochia” value (kochia [16]; [24]) was 90. For the same molecule, the “Soybean plant response rating” value (soybean [17]; 500 g ai/ha) was 100, the “Plant response rating, Soybean” value (soybean [17]; [24]) was 20 and the “Plant response rating, Blackgrass” value (blackgrass [18]; [25]) was 70. The “Plant response rating, Blackgrass” value (blackgrass [18]; [26]) was 50, the “Oat, Wild plant response rating” value (oat, wild [19]; 500 g ai/ha) was 90 and the “Plant response rating, Oat, Wild” value (oat, wild [19]; [24]) was 30. For the same molecule, the “Plant response rating, Pigweed, Palmer” value (pigweed, palmer [20]; [25]) was 80, the “Plant response rating, Pigweed, Palmer” value (pigweed, palmer [20]; [26]) was 80 and the “Plant response rating, Soybean” value (soybean [21]; [25]) was 100. The “Plant response rating, Soybean” value (soybean [21]; [26]) was 100, the “Corn plant response rating” value (corn [22]; 500 g ai/ha) was 30 and the “Plant response rating, Corn” value (corn [22]; [24]) was 20. For the same molecule, the “Plant response rating, Wheat” value (wheat [23]; [25]) was 50, the “Plant response rating, Wheat” value (wheat [23]; [26]) was 30 and the “Plant response rating, Horseweed” value (horseweed; [25]) was 20. The “Plant response rating, Horseweed” value (horseweed; [26]) was 0.

With COC[C@H]1CN(C(=O)c2cc(-n3cnc(C4CCC4)n3)ccc2C)c2cccc(Cl)c2O1 [Compound 267] the “Ryegrass, Italian plant response rating” value (ryegrass, Italian [1]; 500 g ai/ha) was 90, the “Ryegrass, Italian plant response rating” value (ryegrass, Italian [1]; Test C, 125 g ai/ha) was 70 and the “Plant response rating, Rice (Flood)” value (rice) was 25. For the same molecule, the “Plant response rating, Barnyardgrass (Flood)” value (barnyardgrass [2]) was 35, the “Plant response rating, Galium” value (galium; [29]) was 100 and the “Plant response rating, Galium” value (galium; [30]) was 100. The “Plant response rating, Sedge, Umbrella (Flood)” value (sedge, umbrella) was 98, the “Wheat plant response rating” value (wheat [3]; 500 g ai/ha) was 30 and the “Wheat plant response rating” value (wheat [3]; Test C, 125 g ai/ha) was 20. For the same molecule, the “Plant response rating, Foxtail, Green” value (green foxtail [4]; [29]) was 70, the “Plant response rating, Foxtail, Green” value (green foxtail [4]; [30]) was 90 and the “Plant response rating, Oat, Wild” value (oat, wild [5]; [29]) was 0. The “Plant response rating, Blackgrass” value (blackgrass [6]; [31]) was 60, the “Blackgrass plant response rating” value (blackgrass [6]; [32]) was 20 and the “Plant response rating, Ducksalad (Flood)” value (ducksalad) was 50. The “Ragweed plant response rating” value (ragweed [7]; 500 g ai/ha) was 60, the “Ragweed plant response rating” value (ragweed [7]; Test C, 125 g ai/ha) was 40 and the “Plant response rating, Ryegrass, Italian” value (ryegrass, Italian [8]; [29]) was 60. The “Plant response rating, Barnyardgrass” value (barnyardgrass [9]; [29]) was 60, the “Plant response rating, Barnyardgrass” value (barnyardgrass [9]; [30]) was 90 and the “Plant response rating, Kochia” value (kochia [10]; [29]) was 90. For the same molecule, the “Foxtail, Green plant response rating” value (green foxtail [11]; 500 g ai/ha) was 100, the “Foxtail, Green plant response rating” value (green foxtail [11]; Test C, 125 g ai/ha) was 100 and the “Pigweed, Palmer plant response rating” value (pigweed, palmer [12]; 500 g ai/ha) was 100. For the same molecule, the “Pigweed, Palmer plant response rating” value (pigweed, palmer [12]; Test C, 125 g ai/ha) was 90, the “Plant response rating, Barnyardgrass” value (barnyardgrass [13]; [31]) was 80 and the “Barnyardgrass plant response rating” value (barnyardgrass [13]; [32]) was 60. For the same molecule, the “Plant response rating, Ragweed” value (ragweed [14]; [29]) was 70, the “Plant response rating, Corn” value (corn [15]; [29]) was 50 and the “Plant response rating, Corn” value (corn [15]; [30]) was 90. For the same molecule, the “Kochia plant response rating” value (kochia [16]; 500 g ai/ha) was 90, the “Kochia plant response rating” value (kochia [16]; Test C, 125 g ai/ha) was 90 and the “Soybean plant response rating” value (soybean [17]; 500 g ai/ha) was 90. The “Soybean plant response rating” value (soybean [17]; Test C, 125 g ai/ha) was 90, the “Plant response rating, Blackgrass” value (blackgrass [18]; [29]) was 30 and the “Plant response rating, Blackgrass” value (blackgrass [18]; [30]) was 50. The “Oat, Wild plant response rating” value (oat, wild [19]; 500 g ai/ha) was 60, the “Oat, Wild plant response rating” value (oat, wild [19]; Test C, 125 g ai/ha) was 40 and the “Plant response rating, Pigweed, Palmer” value (pigweed, palmer [20]; [29]) was 90. The “Plant response rating, Soybean” value (soybean [21]; [29]) was 100, the “Corn plant response rating” value (corn [22]; 500 g ai/ha) was 10 and the “Corn plant response rating” value (corn [22]; Test C, 125 g ai/ha) was 0. The “Plant response rating, Wheat” value (wheat [23]; [29]) was 20, the “Plant response rating, Horseweed” value (horseweed; [29]) was 60 and the “Plant response rating, Horseweed” value (horseweed; [30]) was 50.
